Active and inactive are the calls of the source. The rule behind the calls is not given here.
How the values were obtained:
[1] = system: Staphylococcus epidermidis; test: Antimicrobial activity against Staphylococcus epidermidis ATCC 12228 assessed as inhibition of visible bacterial growth incubated for 18 hrs by broth-dilution method; assay type: functional
[2] = system: Staphylococcus aureus; test: Antibacterial activity against methicillin-resistant Staphylococcus aureus ATCC 33591 infected in male Balb/c mouse model of full thickness skin wound assessed as reduction in bacteria in skin wound at 1 mg/ml pre-infected with bacteria for 1 hrs followed by compound administration at 1,12 and 36 hrs post infection and measured after 10 days by photographic analysis; assay type: functional, organism-based; details: time 10.0 day
[3] = system: Pseudomonas aeruginosa; test: Bactericidal activity against Pseudomonas aeruginosa ATCC 27853 assessed as bacterial eradication at 2 times of MIC measured within 30 mins by time-kill kinetics assay; assay type: functional, organism-based
[4] = system: Staphylococcus aureus; test: Antibiofilm activity in Staphylococcus aureus ATCC 25923 assessed as inhibition of biofilm formation at 4 times of MIC incubated for 24 hrs by crystal violet staining based analysis relative to control; assay type: functional
[5] = system: DNA; test: Binding affinity to Staphylococcus aureus ATCC 25923 DNA at 2 times of MIC measured after 30 mins by agarose gel electrophoresis; assay type: nucleic-acid assay
[6] = system: Staphylococcus aureus; test: Bactericidal activity against Staphylococcus aureus ATCC 25923 assessed as bacterial killing at 1 to 4 times of MIC by time-kill kinetics assay; assay type: functional, organism-based; details: time <= 360.0 min
[7] = system: Staphylococcus aureus; test: Antibiofilm activity in Staphylococcus aureus ATCC 25923 assessed as inhibition of biofilm formation at 1/2 times of MIC incubated for 24 hrs by crystal violet staining based analysis relative to control; assay type: functional
[8] = system: Klebsiella pneumoniae; test: Antibacterial activity against Klebsiella pneumoniae ATCC 700603 infected in male Balb/c mouse model of pneumonia assessed as decrease in decrease in IL-1beta level in lung at 2.5 to 10 mg/kg, ip administered at 4 and 12 hrs post-infected and measured after 24 hrs by ELISA; assay type: functional, organism-based; details: dose 2.5-10 mg/kg, time 20.0 hrs
[9] = system: Staphylococcus aureus; test: Antibacterial activity against methicillin-resistant Staphylococcus aureus ATCC 33591 infected in male Balb/c mouse model of full thickness skin wound assessed as reduction in bacterial load in skin at 1 mg/ml pre-infected with bacteria for 1 hrs followed by compound administration at 1,12 and 36 hrs post infection and measured 60 hrs post infection by agar plate method; assay type: functional, organism-based; details: time 59.0 hrs
[10] = system: Escherichia coli; test: Antimicrobial activity against multi-drug resistant Escherichia coli clinical isolate 780 assessed as concentration required to eliminate 90% bacteria incubated for 18 hrs by broth-microdilution method; assay type: functional
[11] = system: Staphylococcus aureus; test: Synergistic antimicrobial activity against gentamicin-resistant Staphylococcus aureus ATCC 25923 assessed as fractional inhibitory concentration index incubated for 18 hrs in presence of gentamicin by checkerboard microdilution method; assay type: functional
[12] = system: Staphylococcus aureus; test: Bactericidal activity against Staphylococcus aureus ATCC 25923 assessed as bacterial eradication at 1 times of MIC measured within 90 mins by time-kill kinetics assay; assay type: functional, organism-based
[13] = system: Pseudomonas aeruginosa; test: Resistance fold, ratio of MIC for Pseudomonas aeruginosa ATCC 27853 measured after 20 passages to MIC for Pseudomonas aeruginosa ATCC 27853 measured immediately; assay type: functional
[14] = system: Pseudomonas aeruginosa; test: Antibacterial activity against Pseudomonas aeruginosa ATCC 27853 assessed as fold change in MIC incubated for 18 hrs in presence of KCl by Mueller-Hinton broth based assay; assay type: functional
[15] = system: Pseudomonas aeruginosa; test: Induction of morphological changes in Pseudomonas aeruginosa ATCC 27853 assessed as membrane disruption at 2 times of MIC incubated for 30 to 120 mins by SEM analysis; assay type: functional, organism-based; details: time 30-120 min
[16] = system: Pseudomonas aeruginosa; test: Synergistic antimicrobial activity against gentamicin-resistant Pseudomonas aeruginosa ATCC 27853 assessed as fractional inhibitory concentration index incubated for 18 hrs in presence of gentamicin by checkerboard microdilution method; assay type: functional
[17] = system: Staphylococcus aureus; test: Antibacterial activity against Staphylococcus aureus ATCC 25923 incubated for 18 hrs in presence of FeCl3 by Mueller-Hinton broth based assay; assay type: functional, organism-based
[18] = system: Pseudomonas aeruginosa; test: Antibacterial activity against Pseudomonas aeruginosa ATCC 27853 incubated for 18 hrs in presence of 10% serum by broth microdilution method; assay type: functional, organism-based
[19] = system: Cell membrane; test: Disruption of membrane integrity in Staphylococcus aureus ATCC 25923 at 2 times of MIC incubated for 30 to 120 mins by SEM analysis; assay type: subcellular; details: time 30-120 min
[20] = system: Pseudomonas aeruginosa; test: Antibiofilm activity in Pseudomonas aeruginosa ATCC 27853 assessed as inhibition of biofilm formation at 1 times of MIC incubated for 24 hrs by crystal violet staining based analysis relative to control; assay type: functional
[21] = system: Staphylococcus aureus; test: Antibacterial activity against methicillin-resistant Staphylococcus aureus ATCC 33591 infected in male Balb/c mouse model of full thickness skin wound assessed as decrease in cell necrosis in skin at 1 mg/ml pre-infected with bacteria for 1 hrs followed by compound administration at 1,12 and 36 hrs post infection and measured after 10 days by H and E staining based analysis; assay type: functional, organism-based; details: time 10.0 day
[22] = system: Pseudomonas aeruginosa; test: Bactericidal activity against Pseudomonas aeruginosa ATCC 27853 assessed as bacterial eradication at 1 times of MIC measured after 60 mins by time-kill kinetics assay; assay type: functional, organism-based
[23] = system: Staphylococcus aureus; test: Antimicrobial activity against Staphylococcus aureus ATCC 25923 assessed as inhibition of visible bacterial growth incubated for 18 hrs by broth-dilution method; assay type: functional
[24] = system: Pseudomonas aeruginosa; test: Antimicrobial activity against multi-drug resistant Pseudomonas aeruginosa clinical isolate 119 assessed as concentration required to eliminate 90% bacteria incubated for 18 hrs by broth-microdilution method; assay type: functional
[25] = system: Klebsiella pneumoniae; test: Antibacterial activity against Klebsiella pneumoniae ATCC 700603 infected in male Balb/c mouse model of pneumonia assessed as decrease in inflammatory cell infiltration in […] at 2.5 mg/kg, ip administered at 4 and 12 hrs post-infected and measured after 24 hrs by H and E staining based analysis; assay type: functional, organism-based; details: time 20.0 hrs
[26] = system: Staphylococcus aureus; test: Antibacterial activity against Staphylococcus aureus ATCC 25923 assessed as fold change in MIC incubated for 18 hrs in presence of NaCl by Mueller-Hinton broth based assay; assay type: functional
[27] = system: Pseudomonas aeruginosa; test: Bactericidal activity against Pseudomonas aeruginosa ATCC 27853 assessed as bacterial eradication at 4 times of MIC measured within 30 mins by time-kill kinetics assay; assay type: functional, organism-based
[28] = system: Bacillus subtilis; test: Antimicrobial activity against Bacillus subtilis ATCC 23857 assessed as inhibition of visible bacterial growth incubated for 18 hrs by broth microdilution method; assay type: functional
[29] = system: Pseudomonas aeruginosa; test: Induction of morphological changes in Pseudomonas aeruginosa ATCC 27853 assessed as cell adhesion at 2 times of MIC incubated for 30 to 120 mins by SEM analysis; assay type: functional, organism-based; details: time 30-120 min
[30] = Toxicity in male Balb/c mouse assessed as animal death at 127 mg/kg, ip measured within 2 days; assay type: organism-based; details: in vivo, 48 h, time < 2 day
[31] = system: Pseudomonas aeruginosa; test: Antimicrobial activity against Pseudomonas aeruginosa ATCC 27853 assessed as inhibition of visible bacterial growth incubated for 18 hrs by broth microdilution method; assay type: functional
[32] = system: Staphylococcus aureus; test: Induction of morphological changes in Staphylococcus aureus ATCC 25923 assessed as cellular fragmentation at 2 times of MIC incubated for 30 to 120 mins by SEM analysis; assay type: functional, organism-based; details: time 30-120 min
[33] = system: Cell membrane; test: Induction of inner membrane permeabilization in Escherichia coli ML-35 ATCC 43837 assessed as increase in […] measured for 135 mins by ONPG based analysis; assay type: subcellular
[34] = system: Pseudomonas aeruginosa; test: Antimicrobial activity against multi-drug resistant Pseudomonas aeruginosa clinical isolate 124 assessed as concentration required to eliminate 90% bacteria incubated for 18 hrs by broth-microdilution method; assay type: functional
[35] = system: Acinetobacter baumannii; test: Antimicrobial activity against Acinetobacter baumannii ATCC 19606 assessed as inhibition of visible bacterial growth incubated for 18 hrs by broth microdilution method; assay type: functional
[36] = system: Pseudomonas aeruginosa; test: Antimicrobial activity against gentamicin-resistant Pseudomonas aeruginosa ATCC 27853 assessed as inhibition of visible bacterial growth incubated for 18 hrs by broth microdilution method; assay type: functional

## H-RRWFRRWRRWFR-NH2
[1]
  MIC: 1 µM
[2]
  Activity: Active; Obvious Facilitation Of Wound Healing Not Observed
[3]
  Activity: Active
[4]
  inhibition (INH): ~75%
[5]
  Activity: Active
[6]
  Activity: Time-dependent-effect
[7]
  inhibition (INH): 35%
[8]
  Activity: Active
[9]
  Activity: Active
[10]
  EC90: 5080 nM
[11]
  fractional inhibitory concentration index (FICI): 0.25
[12]
  Activity: Active
[13]
  fold change (FC): <=2
[14]
  fold change (FC): 2
[15]
  Activity: Active
[16]
  fractional inhibitory concentration index (FICI): 0.5
[17]
  Activity: Active
[18]
  Activity: inactive
[19]
  Activity: Active
[20]
  inhibition (INH): >90%
[21]
  Activity: Active
[22]
  Activity: Active
[23]
  MIC: 2 µM
[24]
  EC90: 566 nM
[25]
  Activity: Active
[26]
  fold change (FC): 2
[27]
  Activity: Active
[28]
  MIC: 1 µM
[29]
  Activity: Active
[30]
  Activity: Toxic
[31]
  MIC: 2 µM
[32]
  Activity: Active
[33]
  Activity: Active; Lower Concentration Of Compound Is Sufficient To Disrupt Inner Membrane
[34]
  EC90: 780 nM
[35]
  MIC: 8 µM
[36]
  MIC: 2 µM

Reference: ChEMBL document CHEMBL6153094, “Rationally designed highly amphipathic antimicrobial peptides demonstrating superior bacterial selectivity relative to the corresponding α-helix peptide” (Eur J Med Chem, 2025)
